Test results published in US10874636B2, “Application of substituted cinnamamide derivatives in preparation of anti-anxiety medication” (TASLY PHARMACEUTICAL GROUP CO., LTD., priority 2016, dated 2020).

Assays:
[1] = system: mice; experiment: Elevated plus-maze test for mice; type: in vivo, ICR male mice; settings: 10 mg/kg intragastric for 1 week; in words
Protocol: 247 ICR male mice aged 6-8 weeks with the weight of 18-22 g were taken and fed adaptively for 1 week. Then, these mice were evenly divided, at random, into 19 groups based on their weights. Intragastric administration was conducted once a day according to the drugs and dosages listed in Table 1, which lasted for 7 consecutive days. 20 minutes after administration on the 7th day, the elevated plus-maze test was conducted.
The elevated plus-maze (EPM) for mice were composed of two opposite open arms (50 cm×10 cm) and two opposite enclosed arms (50 cm×10 cm×40 cm), wherein upper portions of the enclosed arms were not capped, an open portion of 10 cm×10 cm was located in the middle of the maze, and the maze was 50 cm away from the ground. The test was conducted in a quite environment at a time period ranging from 13:00 to 18:00.
The open-arms entries (OE) and enclosed-arms entries, as well as the residence time in two arms, of the mice, within 5 minutes, were recorded respectively, and the percentage of the open-arms entries (OE %) and that of the open-arms time (OT %) for each group of mice with respect to the total entries into the two arms and the total residence time in the two arms therein were calculated respectively.
Analysis was conducted using SPSS 11.5 software, and data were represented by x±S, the significance of differences between groups was compared using the analysis of variance, differences were significant while P was less than 0.05.

[2] = system: rats; experiment: Drinking conflict experiment for rats (Vogel test); type: in vivo, SD male rats; settings: for Effect on water licks of the rats during the punished session compared with the solvent control groups: 5 mg/kg intragastric for 10 days, in words; for Water licks of rats during punished session: 5 mg/kg intragastric once a day for 10 days, test half an hour after final administration, 3 minutes, 0.3 mA, x±S
Protocol: 230 SD male rats with the weight of 180-220 g were taken and fed adaptively for 1 week. Then, these rats were divided, at random, into 19 groups based on their weights, 12-13 rats in each group. Intragastric administration was conducted one a day according to the drugs and dosages listed in Table 2, which lasted for 10 consecutive days. Water deprivation 48 hours before the final administration, and non-punitive drinking training was conducted on the 9th day; on the 10th day, half an hour after the final intragastric administration of all the groups, the punitive experimental test was conducted.
On the first stage (non-punitive drinking training): after water deprivation for 24 hours, the rats were placed in operation boxes individually to explore thoroughly, until they found bottle mouths and began to lick water, water licks of the rats within 3 minutes under the conditions of no electric shock (the condition was set as follows: the strength of electric shock was 0 mA) were automatically recorded by counters, and rats whose water licks were less than 300 were eliminated. On the second stage (punitive experiment): the above rats which were not eliminated were placed in the operation boxes after continuing the water deprivation for 24 hours (48 hours in total). The rats could find the bottle mouths rapidly and begin to lick water, the instruments began to time automatically and imparted one electric shock (the ratio of licks to the number of electric shocks was 20:1) while the water licks reached to 20, wherein the strength of electric shocks was 0.3 mA, lasting for 2 seconds, but these rats may control the length of the time for which they were electrically shocked by keeping away from the bottle mouths. Water licks of the rats during the punished session (3 minutes) were recorded.
Observational indexes of the Vogel drinking conflict model: water licks of the rats during the punished session.

CC(C)CNC(=O)/C=C/c1cc(I)c2c(c1)OCO2 [II-3, 5′-iodine-3′,4′-methylenedioxy cinnamic acid isobutylamide]
Effect on open-arms entries of the mice compared with the solvent control groups [1]: increase the open-arms entries of the mice | Effect on open-arms time of the mice compared with the solvent control groups [1]: prolong their open-arms time | Effect on water licks of the rats during the punished session compared with the solvent control groups [2]: increase water licks of the rats during the punished session | Water licks of rats during punished session [2]: 483.75 ± 59.05

CC(C)CNC(=O)/C=C/c1cc(Cl)c2c(c1)OCO2 [II-4, 5′-chlorine-3′,4′-methylenedioxy cinnamic acid isobutylamide]
Effect on open-arms entries of the mice compared with the solvent control groups [1]: increase the open-arms entries of the mice | Effect on open-arms time of the mice compared with the solvent control groups [1]: prolong their open-arms time | Effect on water licks of the rats during the punished session compared with the solvent control groups [2]: increase water licks of the rats during the punished session | Water licks of rats during punished session [2]: 477.22 ± 66.66

CC(C)CNC(=O)/C=C/c1cc2c(c(C(F)(F)F)c1)OCO2 [II-5, 5′-trifluoromethyl-3′,4′-methylenedioxy cinnamic acid isobutylamide]
Effect on open-arms entries of the mice compared with the solvent control groups [1]: increase the open-arms entries of the mice | Effect on open-arms time of the mice compared with the solvent control groups [1]: prolong their open-arms time | Effect on water licks of the rats during the punished session compared with the solvent control groups [2]: increase water licks of the rats during the punished session | Water licks of rats during punished session [2]: 469.11 ± 50.51

O=C(/C=C/c1cc2c(c(C(F)(F)F)c1)OCO2)N1CCCCC1 [II-10, 5′-trifluoromethyl-3′,4′-methylenedioxy cinnamic acid piperidinylamide]
Effect on open-arms entries of the mice compared with the solvent control groups [1]: increase the open-arms entries of the mice | Effect on open-arms time of the mice compared with the solvent control groups [1]: prolong their open-arms time | Effect on water licks of the rats during the punished session compared with the solvent control groups [2]: increase water licks of the rats during the punished session | Water licks of rats during punished session [2]: 459.75 ± 59.23

CC(C)CNC(=O)CCc1cc2c(c(C(F)(F)F)c1)OCO2 [II-11, 3-(5′-trifluoromethyl-3′,4′-methylenedioxyphenyl)-propionic acid isobutylamide]
Effect on open-arms entries of the mice compared with the solvent control groups [1]: increase the open-arms entries of the mice | Effect on open-arms time of the mice compared with the solvent control groups [1]: prolong their open-arms time | Effect on water licks of the rats during the punished session compared with the solvent control groups [2]: increase water licks of the rats during the punished session | Water licks of rats during punished session [2]: 426.25 ± 37.29

CC(C)CNC(=O)c1cc2c(c(C(F)(F)F)c1)OCO2 [II-12, 5-trifluoromethyl-3′,4′-methylenedioxy benzoic acid isobutylamide]
Effect on open-arms entries of the mice compared with the solvent control groups [1]: increase the open-arms entries of the mice | Effect on open-arms time of the mice compared with the solvent control groups [1]: prolong their open-arms time | Effect on water licks of the rats during the punished session compared with the solvent control groups [2]: increase water licks of the rats during the punished session | Water licks of rats during punished session [2]: 402.67 ± 50.35

CN1CCN(C(=O)/C=C/CCc2cc3c(c(C(F)(F)F)c2)OCO3)CC1.Cl [II-13, (E)-N-(4-methylpiperazinyl)-5-(5′-trifluoromethyl-3′,4′-methylenedioxyphenyl)-1-pentene amide hydrochloride]
Effect on open-arms entries of the mice compared with the solvent control groups [1]: increase the open-arms entries of the mice | Effect on open-arms time of the mice compared with the solvent control groups [1]: prolong their open-arms time | Effect on water licks of the rats during the punished session compared with the solvent control groups [2]: increase water licks of the rats during the punished session | Water licks of rats during punished session [2]: 393.44 ± 48.99

CC(C)CNC(=O)/C=C/C=C/CCc1cc2c(c(C(F)(F)F)c1)OCO2 [II-14, (2E, 4E)-N-isobutyl-7-(5′-trifluoromethyl-3′,4′-methylenedioxyphenyl)-2,4-heptadiene amide]
Effect on open-arms entries of the mice compared with the solvent control groups [1]: increase the open-arms entries of the mice | Effect on open-arms time of the mice compared with the solvent control groups [1]: prolong their open-arms time | Effect on water licks of the rats during the punished session compared with the solvent control groups [2]: increase water licks of the rats during the punished session | Water licks of rats during punished session [2]: 368.00 ± 47.38

CN1CCN(C(=O)/C=C/C=C/CCc2cc3c(c(C(F)(F)F)c2)OCO3)CC1.Cl [II-15, (2E,4E)-N-(4-methylpiperazinyl)-7-(5′-trifluoromethyl-3′,4′-methylenedioxyphenyl)-2,4-heptadiene amide hydrochloride]
Effect on open-arms entries of the mice compared with the solvent control groups [1]: increase the open-arms entries of the mice | Effect on open-arms time of the mice compared with the solvent control groups [1]: prolong their open-arms time | Effect on water licks of the rats during the punished session compared with the solvent control groups [2]: increase water licks of the rats during the punished session | Water licks of rats during punished session [2]: 412.25 ± 42.90

COc1cc(/C=C/C(=O)NCC(C)C)cc(C(F)(F)F)c1OC [III-2, 3′,4′-dimethoxy-5′-trifluoromethyl-cinnamic acid isobutylamide]
Effect on open-arms entries of the mice compared with the solvent control groups [1]: increase the open-arms entries of the mice | Effect on open-arms time of the mice compared with the solvent control groups [1]: prolong their open-arms time | Effect on water licks of the rats during the punished session compared with the solvent control groups [2]: increase water licks of the rats during the punished session | Water licks of rats during punished session [2]: 368.00 ± 39.59

COc1c(O)cc(/C=C/C(=O)NCC(C)C)cc1C(F)(F)F [III-4, 3′-hydroxyl-4′-methoxy-5′-trifluoromethyl-cinnamic acid isobutylamide]
Effect on open-arms entries of the mice compared with the solvent control groups [1]: increase the open-arms entries of the mice | Effect on open-arms time of the mice compared with the solvent control groups [1]: prolong their open-arms time | Effect on water licks of the rats during the punished session compared with the solvent control groups [2]: increase water licks of the rats during the punished session | Water licks of rats during punished session [2]: 394.22 ± 50.29

CC(C)CNC(=O)/C=C/c1cc(O)c(O)c(C(F)(F)F)c1 [III-7, 3′,4′-dihydroxyl-5′-trifluoromethyl-cinnamic acid isobutylamide]
Effect on open-arms entries of the mice compared with the solvent control groups [1]: increase the open-arms entries of the mice | Effect on open-arms time of the mice compared with the solvent control groups [1]: prolong their open-arms time | Effect on water licks of the rats during the punished session compared with the solvent control groups [2]: increase water licks of the rats during the punished session | Water licks of rats during punished session [2]: 378.33 ± 54.97

O=C(/C=C/c1cc(O)c(O)c(C(F)(F)F)c1)N1CCCCC1 [III-9, 3′,4′-dihydroxyl-5′-trifluoromethyl-cinnamyl piperidine]
Effect on open-arms entries of the mice compared with the solvent control groups [1]: increase the open-arms entries of the mice | Effect on open-arms time of the mice compared with the solvent control groups [1]: prolong their open-arms time | Effect on water licks of the rats during the punished session compared with the solvent control groups [2]: increase water licks of the rats during the punished session | Water licks of rats during punished session [2]: 363.56 ± 39.70

CC(C)CNC(=O)CCc1cc(O)c(O)c(C(F)(F)F)c1 [III-10, 3-(3′,4′-dihydroxyl-5′-trifluoromethylphenyl)-propionic acid isobutylamide]
Effect on open-arms entries of the mice compared with the solvent control groups [1]: increase the open-arms entries of the mice | Effect on open-arms time of the mice compared with the solvent control groups [1]: prolong their open-arms time | Effect on water licks of the rats during the punished session compared with the solvent control groups [2]: increase water licks of the rats during the punished session | Water licks of rats during punished session [2]: 369.00 ± 44.83

CC(C)CNC(=O)c1cc(O)c(O)c(C(F)(F)F)c1 [III-11, 3,4-dihydroxyl-5-trifluoromethyl-benzoic acid isobutylamide]
Effect on open-arms entries of the mice compared with the solvent control groups [1]: increase the open-arms entries of the mice | Effect on open-arms time of the mice compared with the solvent control groups [1]: prolong their open-arms time | Effect on water licks of the rats during the punished session compared with the solvent control groups [2]: increase water licks of the rats during the punished session | Water licks of rats during punished session [2]: 361.13 ± 38.38
